Assay results reported in patent US11149011B2, “Compounds and methods for IDO and TDO modulation, and indications therefor” (Plexxikon Inc., priority 2018, dated 2021).

Assays:
[1] = target: T1, TDO-expressing HEK293 cell clones (Homo sapiens, UniProt P48775); test: Cell based kynurenine assay, TDO-expressing HEK293 cell clones; details: HEK293 cells, 24 hours of incubation, geometric mean; read-out: HEK293 TDO Kynurenine GMean IC50 (μM) (Cellular Assay)
T1 construct: expressed in transfected cells; host or cells: HEK293
In short: (§1)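 IC50s come from nonlinear regression of % inhibition of kynurenine in culture supernatant after 24 hours of compound exposure. Controls were 0.2% DMSO-treated cells and media alone. Cells were stable human IDO1- or TDO-expressing HEK293 clones (CMV promoter), plated at 2.5×10^4 per well.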

[2] = target: T2, IDO1 (Homo sapiens, UniProt P14902); test: IDO enzymatic assay; type: biochemical; details: geometric mean; read-out: IDO1 GMean: IC50 (μM) (Biochemical Assay)
T2 construct: His tag (N); made in house; host or cells: E. coli
In short: (§2)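 Kynurenine formed after TCA hydrolysis (30 min, 50 °C) was quantified relative to full-reaction and no-enzyme controls, and IC50s were fitted. TDO reactions used 1 nM enzyme with 350 μM Trp and 0.4 μM methylene blue for 70 min; IDO reactions used 6 nM enzyme, 10 μM Trp, 5 μM methylene blue for 20 min; both at pH 6.5, room temperature.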

[3] = target: T3, IDO1-expressing HEK293 cell clones (Homo sapiens, UniProt P14902); test: Cell based kynurenine assay, IDO1-expressing HEK293 cell clones; details: HEK293 cells, 24 hours of incubation, geometric mean; read-out: HEK293 IDO1 Kynurenine GMean IC50 (μM) (Cellular Assay)
T3 construct: expressed in transfected cells; host or cells: HEK293
In short: as §1

[4] = target: T4, TDO (Homo sapiens, UniProt P48775); test: TDO enzymatic assay; details: geometric mean; read-out: TDO GMean: IC50 (μM) (Biochemical Assay)
T4 construct: His tag (N); made in house; host or cells: E. coli
In short: as §2

T4 sequence (P48775 whole entry): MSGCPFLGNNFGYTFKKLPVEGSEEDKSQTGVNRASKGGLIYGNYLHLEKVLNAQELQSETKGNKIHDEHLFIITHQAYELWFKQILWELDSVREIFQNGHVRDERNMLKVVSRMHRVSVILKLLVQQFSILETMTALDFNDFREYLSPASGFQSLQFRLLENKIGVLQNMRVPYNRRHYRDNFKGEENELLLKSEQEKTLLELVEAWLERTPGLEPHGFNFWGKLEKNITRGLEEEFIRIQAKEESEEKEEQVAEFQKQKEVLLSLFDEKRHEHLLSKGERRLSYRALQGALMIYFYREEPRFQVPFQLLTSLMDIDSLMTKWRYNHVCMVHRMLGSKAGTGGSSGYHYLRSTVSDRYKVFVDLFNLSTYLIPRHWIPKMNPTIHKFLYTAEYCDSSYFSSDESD
T1 sequence (P48775 whole entry): as above
T3 sequence (P14902 whole entry): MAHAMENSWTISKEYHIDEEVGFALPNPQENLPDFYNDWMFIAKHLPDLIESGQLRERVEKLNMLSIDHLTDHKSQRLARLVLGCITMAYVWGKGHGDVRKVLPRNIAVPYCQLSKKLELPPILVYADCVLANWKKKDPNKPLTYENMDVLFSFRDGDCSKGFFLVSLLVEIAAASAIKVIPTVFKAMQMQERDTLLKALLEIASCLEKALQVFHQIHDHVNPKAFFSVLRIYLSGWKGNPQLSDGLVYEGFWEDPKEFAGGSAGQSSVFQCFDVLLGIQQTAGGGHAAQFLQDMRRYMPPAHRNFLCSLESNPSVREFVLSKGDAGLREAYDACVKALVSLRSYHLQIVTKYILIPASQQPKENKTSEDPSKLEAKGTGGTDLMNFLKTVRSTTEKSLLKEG
T2 sequence (P14902 whole entry): as above

Row | SMILES | IC50 [1] [µM] | IC50 [2] [µM] | IC50 [3] [µM] | IC50 [4] [µM]
1 | CC(C)(C1CCN(C(=O)NCCCF)CC1)C(O)c1cc(Cl)cc2[nH]ncc12 (stereo not shown) [Compound P-0090, 4-(1-(6-chloro-1H-indazol-4-yl)-1-hydroxy-2-methylpropan-2-yl)-N-(3-fluoropropyl)piperidine-1-carboxamide] | 0.0001 to 10 | 0.0001 to 10 | > 10 | 0.0001 to 10
2 | CC(C)(C1CCN(C(=O)NCC(F)F)CC1)C(O)c1cc(Cl)cc2[nH]ncc12 (stereo not shown) [Compound P-0091, 4-(1-(6-chloro-1H-indazol-4-yl)-1-hydroxy-2-methylpropan-2-yl)-N-(2,2-difluoroethyl)piperidine-1-carboxamide] | 0.0001 to 10 | 0.0001 to 10 | 0.0001 to 10 | 0.0001 to 10
3 | CC(C)(C1CCN(C(=O)NCC2CCC2)CC1)C(O)c1cc(Cl)cc2[nH]ncc12 (stereo not shown) [Compound P-0092, 4-(1-(6-chloro-1H-indazol-4-yl)-1-hydroxy-2-methylpropan-2-yl)-N-(cyclobutylmethyl)piperidine-1-carboxamide] | 0.0001 to 10 | 0.0001 to 10 | 0.0001 to 10 | 0.0001 to 10
4 | CONC(=O)N1CCC(C(C)(C)C(O)c2cc(Cl)cc3[nH]ncc23)CC1 (stereo not shown) [Compound P-0093, 4-(1-(6-chloro-1H-indazol-4-yl)-1-hydroxy-2-methylpropan-2-yl)-N-methoxypiperidine-1-carboxamide] | 0.0001 to 10 | 0.0001 to 10 | > 10 | 0.0001 to 10
5 | CC(C)(C1CCN(C(=O)NC2CC(F)(F)C2)CC1)C(O)c1cc(Cl)cc2[nH]ncc12 (stereo not shown) [Compound P-0094, 4-(1-(6-chloro-1H-indazol-4-yl)-1-hydroxy-2-methylpropan-2-yl)-N-(3,3-difluorocyclobutyl)piperidine-1-carboxamide] | 0.0001 to 10 | 0.0001 to 10 | 0.0001 to 10 | 0.0001 to 10
6 | N#CC1CCN(c2cc(Cl)cc3cn[nH]c23)CC1 [Compound P-0097, 1-(5-chloro-1H-indazol-7-yl)piperidine-4-carbonitrile] | 0.0001 to 10 | 0.0001 to 10 | 0.0001 to 10 | 0.0001 to 10
7 | CS(=O)(=O)N1CC=C(c2cc(Cl)cc3cn[nH]c23)CC1 [Compound P-0098, 5-chloro-7-(1-(methylsulfonyl)-1,2,3,6-tetrahydropyridin-4-yl)-1H-indazole] | 0.0001 to 10 | 0.0001 to 10 | 0.0001 to 10 | 0.0001 to 10
8 | OC1(c2cc(Cl)cc3cn[nH]c23)CC(C2CC2)(C2CC2)C1 [Compound P-0108, 1-(5-chloro-1H-indazol-7-yl)-3,3-dicyclopropylcyclobutan-1-ol] | 0.0001 to 10 | 0.0001 to 10 | 0.0001 to 10 | 0.0001 to 10
9 | CC(C)(C1CCN(C(=O)NCCF)CC1)C(O)c1cc(Cl)cc2[nH]ncc12 (stereo not shown) [Compound P-0110, 4-(1-(6-chloro-1H-indazol-4-yl)-1-hydroxy-2-methylpropan-2-yl)-N-(2-fluoroethyl)piperidine-1-carboxamide] | 0.0001 to 10 | 0.0001 to 10 | > 10 | 0.0001 to 10
10 | CC(C)(C1CCN(C(=O)NC2CCC(F)(F)CC2)CC1)C(O)c1cc(Cl)cc2[nH]ncc12 (stereo not shown) [Compound P-0112, 4-(1-(6-chloro-1H-indazol-4-yl)-1-hydroxy-2-methylpropan-2-yl)-N-(4,4-difluorocyclohexyl)piperidine-1-carboxamide] | 0.0001 to 10 | 0.0001 to 10 | 0.0001 to 10 | 0.0001 to 10
11 | CC(C)(C1CCN(C(=O)N[C@@H]2CCOC2)CC1)C(O)c1cc(Cl)cc2[nH]ncc12 (stereo partly drawn) [Compound P-0113, 4-(1-(6-chloro-1H-indazol-4-yl)-1-hydroxy-2-methylpropan-2-yl)-N-((R)-tetrahydrofuran-3-yl)piperidine-1-carboxamide] | 0.0001 to 10 | 0.0001 to 10 | 0.0001 to 10 | 0.0001 to 10
12 | CC(C)(C1CCN(C(=O)N[C@H]2CCOC2)CC1)C(O)c1cc(Cl)cc2[nH]ncc12 (stereo partly drawn) [Compound P-0114, 4-(1-(6-chloro-1H-indazol-4-yl)-1-hydroxy-2-methylpropan-2-yl)-N-((S)-tetrahydrofuran-3-yl)piperidine-1-carboxamide] | 0.0001 to 10 | 0.0001 to 10 | 0.0001 to 10 | 0.0001 to 10
13 | CC(C)(C1CCN(C(=O)NC[C@H]2CCCO2)CC1)C(O)c1cc(Cl)cc2[nH]ncc12 (stereo partly drawn) [Compound P-0115, 4-(1-(6-chloro-1H-indazol-4-yl)-1-hydroxy-2-methylpropan-2-yl)-N-(((R)-tetrahydrofuran-2-yl)methyl)piperidine-1-carboxamide] | 0.0001 to 10 | 0.0001 to 10 | 0.0001 to 10 | 0.0001 to 10
14 | CC(C)(C1CCN(C(=O)NCc2ccc(C#N)nc2)CC1)C(O)c1cc(Cl)cc2[nH]ncc12 (stereo not shown) [Compound P-0116, 4-(1-(6-chloro-1H-indazol-4-yl)-1-hydroxy-2-methylpropan-2-yl)-N-((6-cyanopyridin-3-yl)methyl)piperidine-1-carboxamide] | 0.0001 to 10 | 0.0001 to 10 | 0.0001 to 10 | 0.0001 to 10
15 | CC(C)(C1CCN(C(=O)NCc2ccc(F)cn2)CC1)C(O)c1cc(Cl)cc2[nH]ncc12 (stereo not shown) [Compound P-0117, 4-(1-(6-chloro-1H-indazol-4-yl)-1-hydroxy-2-methylpropan-2-yl)-N-((5-fluoropyridin-2-yl)methyl)piperidine-1-carboxamide] | 0.0001 to 10 | 0.0001 to 10 | 0.0001 to 10 | 0.0001 to 10
16 | CC(C)(C1CCN(C(=O)NCc2ccc(C#N)cc2)CC1)C(O)c1cc(Cl)cc2[nH]ncc12 (stereo not shown) [Compound P-0118, 4-(1-(6-chloro-1H-indazol-4-yl)-1-hydroxy-2-methylpropan-2-yl)-N-(4-cyanobenzyl)piperidine-1-carboxamide] | 0.0001 to 10 | 0.0001 to 10 | 0.0001 to 10 | 0.0001 to 10
17 | CC(C)(C1CCN(C(=O)NC2(C#N)CC2)CC1)C(O)c1cc(Cl)cc2[nH]ncc12 (stereo not shown) [Compound P-0119, 4-(1-(6-chloro-1H-indazol-4-yl)-1-hydroxy-2-methylpropan-2-yl)-N-(1-cyanocyclopropyl)piperidine-1-carboxamide] | 0.0001 to 10 | 0.0001 to 10 | > 10 | 0.0001 to 10
18 | CC(C)(C1CCN(C(=O)Nc2ccc(C#N)nc2)CC1)[C@H](O)c1cc(Cl)cc2cn[nH]c12 [Compound P-0120, (S)-4-(1-(5-chloro-1H-indazol-7-yl)-1-hydroxy-2-methylpropan-2-yl)-N-(6-cyanopyridin-3-yl)piperidine-1-carboxamide] | 0.0001 to 10 | 0.0001 to 10 | 0.0001 to 10 | 0.0001 to 10
19 | CCONC(=O)N1CCC(C(C)(C)[C@H](O)c2cc(Cl)cc3cn[nH]c23)CC1 [Compound P-0121, (S)-4-(1-(5-chloro-1H-indazol-7-yl)-1-hydroxy-2-methylpropan-2-yl)-N-ethoxypiperidine-1-carboxamide] | 0.0001 to 10 | 0.0001 to 10 | 0.0001 to 10 | 0.0001 to 10
20 | CC(C)(C1CCN(C(=O)NO)CC1)[C@H](O)c1cc(Cl)cc2cn[nH]c12 [Compound P-0122, (S)-4-(1-(5-chloro-1H-indazol-7-yl)-1-hydroxy-2-methylpropan-2-yl)-N-hydroxypiperidine-1-carboxamide] | 0.0001 to 10 | 0.0001 to 10 | 0.0001 to 10 | 0.0001 to 10
21 | CC(C)(C1CCN(C(=O)NOCc2ccccc2)CC1)[C@H](O)c1cc(Cl)cc2cn[nH]c12 [Compound P-0123, (S)-N-(benzyloxy)-4-(1-(5-chloro-1H-indazol-7-yl)-1-hydroxy-2-methylpropan-2-yl)piperidine-1-carboxamide] | 0.0001 to 10 | 0.0001 to 10 | 0.0001 to 10 | 0.0001 to 10
22 | C[C@H](O)C(=O)N1CCC(C(C)(C)[C@H](O)c2cc(Cl)cc3cn[nH]c23)CC1 [Compound P-0124, (S)-1-(4-((S)-1-(5-chloro-1H-indazol-7-yl)-1-hydroxy-2-methylpropan-2-yl)piperidin-1-yl)-2-hydroxypropan-1-one] | 0.0001 to 10 | 0.0001 to 10 | 0.0001 to 10 | 0.0001 to 10
23 | C[C@@H](N)C(=O)N1CCC(C(C)(C)[C@H](O)c2cc(Cl)cc3cn[nH]c23)CC1 [Compound P-0125, (R)-2-amino-1-(4-((S)-1-(5-chloro-1H-indazol-7-yl)-1-hydroxy-2-methylpropan-2-yl)piperidin-1-yl)propan-1-one] | 0.0001 to 10 | 0.0001 to 10 | 0.0001 to 10 | 0.0001 to 10
24 | CC(C)(C1CCN(C(=O)CN)CC1)[C@H](O)c1cc(Cl)cc2cn[nH]c12 [Compound P-0126, (S)-2-amino-1-(4-(1-(5-chloro-1H-indazol-7-yl)-1-hydroxy-2-methylpropan-2-yl)piperidin-1-yl)ethan-1-one] | 0.0001 to 10 | 0.0001 to 10 | 0.0001 to 10 | 0.0001 to 10
25 | C[C@H](N)C(=O)N1CCC(C(C)(C)[C@H](O)c2cc(Cl)cc3cn[nH]c23)CC1 [Compound P-0127, (S)-2-amino-1-(4-((S)-1-(5-chloro-1H-indazol-7-yl)-1-hydroxy-2-methylpropan-2-yl)piperidin-1-yl)propan-1-one] | 0.0001 to 10 | 0.0001 to 10 | 0.0001 to 10 | 0.0001 to 10
